Patent publication US6352958B1, “Cycloimido-substituted benzofused heterocyclic herbicides” (FMC Corporation, priority 1997, dated 2002)

What was measured:
Type in all cases: in vivo
[1] = tested on: soybean (Glycine max var. Winchester); assay: Postemergence herbicidal activity, soybean; settings: rate of application 0.3 Kg/Ha, rated after 12-17 days
[2] = tested on: green foxtail (Setaria viridis); assay: Postemergence herbicidal activity, green foxtail; settings: rate of application 0.3 Kg/Ha, rated after 12-17 days
[3] = tested on: velvetleaf (Abutilon theophrasti); assay: Preemergence herbicidal activity, velvetleaf; settings: Rate of Application 0.3 Kg/Ha, examined after 12-17 days
[4] = tested on: wheat (Triticum aestivum var. Lew); assay: Preemergence herbicidal activity, wheat; settings: Rate of Application 0.3 Kg/Ha, examined after 12-17 days
[5] = tested on: morningglory (Ipomea lacunosa or Ipomea hederacea); assay: Preemergence herbicidal activity, morningglory; settings: Rate of Application 0.3 Kg/Ha, examined after 12-17 days
[6] = tested on: velvetleaf (Abutilon theophrasti); assay: Postemergence herbicidal activity, velvetleaf; settings: rate of application 0.3 Kg/Ha, rated after 12-17 days
[7] = tested on: Johnsongrass (Sorghum halepense); assay: Preemergence herbicidal activity, johnsongrass; settings: Rate of Application 0.3 Kg/Ha, examined after 12-17 days
[8] = tested on: wheat (Triticum aestivum var. Lew); assay: Postemergence herbicidal activity, wheat; settings: rate of application 0.3 Kg/Ha, rated after 12-17 days
[9] = tested on: common chickweed (Stellaria media); assay: Postemergence herbicidal activity, chickweed; settings: rate of application 0.3 Kg/Ha, rated after 12-17 days
[10] = tested on: common cocklebur (Xanthium strumarium L.); assay: Preemergence herbicidal activity, cocklebur; settings: Rate of Application 0.3 Kg/Ha, examined after 12-17 days
[11] = tested on: Johnsongrass (Sorghum halepense); assay: Postemergence herbicidal activity, johnsongrass; settings: rate of application 0.3 Kg/Ha, rated after 12-17 days
[12] = tested on: field corn (Zea mays var. Pioneer 3732); assay: Preemergence herbicidal activity, corn; settings: Rate of Application 0.3 Kg/Ha, examined after 12-17 days
[13] = tested on: common chickweed (Stellaria media); assay: Preemergence herbicidal activity, chickweed; settings: Rate of Application 0.3 Kg/Ha, examined after 12-17 days
[14] = tested on: blackgrass (Aloepecurus myosuroides); assay: Postemergence herbicidal activity, blackgrass; settings: rate of application 0.3 Kg/Ha, rated after 12-17 days
[15] = tested on: soybean (Glycine max var. Winchester); assay: Preemergence herbicidal activity, soybean; settings: Rate of Application 0.3 Kg/Ha, examined after 12-17 days
[16] = tested on: blackgrass (Aloepecurus myosuroides); assay: Preemergence herbicidal activity, blackgrass; settings: Rate of Application 0.3 Kg/Ha, examined after 12-17 days
[17] = tested on: field corn (Zea mays var. Pioneer 3732); assay: Postemergence herbicidal activity, corn; settings: rate of application 0.3 Kg/Ha, rated after 12-17 days
[18] = tested on: green foxtail (Setaria viridis); assay: Preemergence herbicidal activity, green foxtail; settings: Rate of Application 0.3 Kg/Ha, examined after 12-17 days
[19] = tested on: common cocklebur (Xanthium strumarium L.); assay: Postemergence herbicidal activity, cocklebur; settings: rate of application 0.3 Kg/Ha, rated after 12-17 days
[20] = tested on: morningglory (Ipomea lacunosa or Ipomea hederacea); assay: Postemergence herbicidal activity, morningglory; settings: rate of application 0.3 Kg/Ha, rated after 12-17 days

Structure (SMILES) | Postemergence herbicidal activity (% control) SOY [1] | Postemergence herbicidal activity (% control) SETVI [2] | PREEMERGENCE HERBICIDAL ACTIVITY (% CONTROL) ABUTH [3] | PREEMERGENCE HERBICIDAL ACTIVITY (% CONTROL) WHT [4] | PREEMERGENCE HERBICIDAL ACTIVITY (% CONTROL) IPOSS [5] | Postemergence herbicidal activity (% control) ABUTH [6] | PREEMERGENCE HERBICIDAL ACTIVITY (% CONTROL) SORHA [7] | Postemergence herbicidal activity (% control) WHT [8] | Postemergence herbicidal activity (% control) STEME [9] | PREEMERGENCE HERBICIDAL ACTIVITY (% CONTROL) XANPE [10] | Postemergence herbicidal activity (% control) SORHA [11] | PREEMERGENCE HERBICIDAL ACTIVITY (% CONTROL) CRN [12] | PREEMERGENCE HERBICIDAL ACTIVITY (% CONTROL) STEME [13] | Postemergence herbicidal activity (% control) ALOMY [14] | PREEMERGENCE HERBICIDAL ACTIVITY (% CONTROL) SOY [15] | PREEMERGENCE HERBICIDAL ACTIVITY (% CONTROL) ALOMY [16] | Postemergence herbicidal activity (% control) CRN [17] | PREEMERGENCE HERBICIDAL ACTIVITY (% CONTROL) SETVI [18] | Postemergence herbicidal activity (% control) XANPE [19] | Postemergence herbicidal activity (% control) IPOSS [20]
CCCc1nc2c(-n3c(=O)cc(C(F)(F)F)n(C)c3=O)c(F)cc(Cl)c2o1 [Compound 26] | 96% | 100% | 100% | 90% | 100% | 100% | 100% | 60% | 80% | 100% | 80% | 90% | 100% | 80% | 100% | 95% | 80% | 100% | 100% | 100%
Cn1c(C(F)(F)F)cc(=O)n(-c2c(F)cc(Cl)c3oc(C(C)(C)C)nc23)c1=O [Compound 30] | 95% | 100% | 100% | 100% | 100% | 100% | 100% | 80% | 100% | 90% | 100% | 95% | 100% | 90% | 100% | 100% | 90% | 100% | 100% | 100%
Cn1c(C(F)(F)F)cc(=O)n(-c2c(F)cc(Cl)c3oc(N)nc23)c1=O [Compound 38] | 70% | 40% | 100% | 50% | 100% | 100% | 60% | 35% | 0% | 70% | 50% | 80% | 0% | 20% | 60% | 30% | 60% | 75% | 45% | 100%
